Test results as given in patent US20250154144A1 (CHILDREN'S HOSPITAL MEDICAL CENTER, priority 2021, published 2025).
Like-named read-outs stand apart in the source and are kept apart here.

Columns and labels:
[1] = test system: MOLM14 D835Y cells; assay: cells; type: cell-based; settings: Homo sapiens, MOLM-14, 48 h, 48 hours, Cell Titer Glo; read-out: MOLM14 D835Y IC50
[2] = test system: MOLM14 F691L cells; assay: cells; type: cell-based; settings: Homo sapiens, MOLM-14, 48 h, 48 hours, Cell Titer Glo; read-out: MOLM14 F691L IC50
[3] = test system: THP1 cells; assay: Combination drug screening, Cell Titer Glo, 10 × 10 matrix, THP1 cells; type: cell-based
[4] = test system: MOLM14(D835Y) cells; type: cell-based; settings: MOLM14(D835Y) cells; for Excess HSA Score: 10 × 10
[5] = biological target: T1, FLT3 (Homo sapiens, UniProt P36888); assay: RBC HotSpot Kinase Assay, FLT3; settings: FLT3 IC50
T1 sequence (P36888 610-943 limits assumed): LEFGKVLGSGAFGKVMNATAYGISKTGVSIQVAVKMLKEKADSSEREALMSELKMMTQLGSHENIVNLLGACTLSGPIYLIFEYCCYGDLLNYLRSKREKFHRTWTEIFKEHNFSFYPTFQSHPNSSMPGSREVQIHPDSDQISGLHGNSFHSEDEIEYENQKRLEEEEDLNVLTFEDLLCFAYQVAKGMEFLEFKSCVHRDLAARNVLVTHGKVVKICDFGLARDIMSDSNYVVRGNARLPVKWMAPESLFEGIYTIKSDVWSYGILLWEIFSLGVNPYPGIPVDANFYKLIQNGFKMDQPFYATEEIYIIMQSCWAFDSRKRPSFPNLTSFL

[6] = biological target: IRAK1 (Homo sapiens, UniProt P51617); assay: RBC HotSpot Kinase Assay, IRAK1; settings: IRAK1 IC50
[7] = biological target: T2, IRAK4 (Homo sapiens, UniProt Q9NWZ3); assay: RBC HotSpot Kinase Assay, IRAK4; settings: IRAK4 IC50
T2 sequence (Q9NWZ3 1-460): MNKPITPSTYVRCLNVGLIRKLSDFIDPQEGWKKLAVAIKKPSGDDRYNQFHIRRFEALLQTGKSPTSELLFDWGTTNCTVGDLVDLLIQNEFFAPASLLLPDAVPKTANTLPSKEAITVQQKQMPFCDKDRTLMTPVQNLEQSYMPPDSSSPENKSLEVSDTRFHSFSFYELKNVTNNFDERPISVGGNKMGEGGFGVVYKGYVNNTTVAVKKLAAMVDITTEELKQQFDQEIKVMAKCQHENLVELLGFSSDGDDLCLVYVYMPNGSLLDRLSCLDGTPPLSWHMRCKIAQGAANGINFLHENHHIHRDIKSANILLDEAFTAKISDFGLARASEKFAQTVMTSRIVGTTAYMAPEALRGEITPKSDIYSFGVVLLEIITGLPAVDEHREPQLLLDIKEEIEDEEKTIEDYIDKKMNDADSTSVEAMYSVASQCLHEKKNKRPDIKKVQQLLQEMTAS

[8] = with (+)-BAY-1251152, single compound range 0-10,000 nM or 0-20,000 nM
[9] = with AMG-232, single compound range 0-10,000 nM or 0-20,000 nM
[10] = with AZD-5363, single compound range 0-10,000 nM or 0-20,000 nM
[11] = with Eprenetapopt/APR-246, single compound range 0-10,000 nM or 0-20,000 nM
[12] = with Ivosidenib, single compound range 0-10,000 nM or 0-20,000 nM
[13] = with Lenalidomide, single compound range 0-10,000 nM or 0-20,000 nM
[14] = with Palbociclib, single compound range 0-10,000 nM or 0-20,000 nM
[15] = with Prednisolone, single compound range 0-10,000 nM or 0-20,000 nM
[16] = with SNDX-5613, single compound range 0-10,000 nM or 0-20,000 nM
[17] = with TNO-155, single compound range 0-10,000 nM or 0-20,000 nM
[18] = with Trametinib, single compound range 0-10,000 nM or 0-20,000 nM
[19] = with Ulixertinib, single compound range 0-10,000 nM or 0-20,000 nM
[20] = with Venetoclax (ABT-199), single compound range 0-10,000 nM or 0-20,000 nM
[21] = combination with (+)-BAY-1251152
[22] = combination with Eprenetapopt/APR-246
[23] = combination with Venetoclax (ABT-199)

Sequence of IRAK1 (P51617 whole entry): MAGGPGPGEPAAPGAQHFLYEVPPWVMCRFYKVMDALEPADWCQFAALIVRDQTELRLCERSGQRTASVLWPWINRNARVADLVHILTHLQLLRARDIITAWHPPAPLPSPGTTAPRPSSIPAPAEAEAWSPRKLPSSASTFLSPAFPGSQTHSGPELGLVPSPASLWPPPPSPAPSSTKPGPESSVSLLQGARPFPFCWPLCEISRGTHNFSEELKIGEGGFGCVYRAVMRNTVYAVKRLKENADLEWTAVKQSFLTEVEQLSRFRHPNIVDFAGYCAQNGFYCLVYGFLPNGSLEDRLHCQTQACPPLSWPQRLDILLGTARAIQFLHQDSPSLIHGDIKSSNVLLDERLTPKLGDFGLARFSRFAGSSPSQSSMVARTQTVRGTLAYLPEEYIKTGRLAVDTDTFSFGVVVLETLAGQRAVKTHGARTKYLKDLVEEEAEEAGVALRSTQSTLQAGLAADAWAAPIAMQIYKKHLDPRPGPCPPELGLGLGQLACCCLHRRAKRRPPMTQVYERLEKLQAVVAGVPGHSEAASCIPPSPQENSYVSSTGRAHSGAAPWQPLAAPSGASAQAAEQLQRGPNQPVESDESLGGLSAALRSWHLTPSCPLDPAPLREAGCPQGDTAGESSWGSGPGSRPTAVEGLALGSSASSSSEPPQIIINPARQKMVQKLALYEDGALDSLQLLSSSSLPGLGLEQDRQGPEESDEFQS

`COc1ccn2c(-c3cncc(N[C@@H]4CCCNC4)n3)cnc2c1` [Compound 5, (R)-6-(7-methoxyimidazo[1,2-a]pyridin-3-yl)-N-(piperidin-3-yl)pyrazin-2-amine] was tested, and the IC50 [1] was 0.024 µM, the IC50 [2] was 0.055 µM and the Comments [3, 8] was “Synergistic”. For the same molecule, the “Excess HSA Score” value [3, 8] was −264.5, the Comments [3, 9] was “Antagonistic” and the “Excess HSA Score” value [3, 9] was 105.5. For the same molecule, the Comments [3, 10] was “Synergistic”, the “Excess HSA Score” value [3, 10] was −94.57 and the Comments [3, 11] was “Antagonistic”. The “Excess HSA Score” value [3, 11] was 163.2, the Comments [3, 12] was “Antagonistic” and the “Excess HSA Score” value [3, 12] was 190. For the same molecule, the Comments [3, 13] was “Antagonistic”, the “Excess HSA Score” value [3, 13] was 264.6 and the Comments [3, 14] was “Antagonistic”. For the same molecule, the “Excess HSA Score” value [3, 14] was 624.7438, the Comments [3, 15] was “Antagonistic” and the “Excess HSA Score” value [3, 15] was 31.68. The Comments [3, 16] was “Antagonistic”, the “Excess HSA Score” value [3, 16] was 340 and the Comments [3, 17] was “Antagonistic”. For the same molecule, the “Excess HSA Score” value [3, 17] was 28.11, the Comments [3, 18] was “Antagonistic” and the “Excess HSA Score” value [3, 18] was 374.3. The Comments [3, 19] was “Antagonistic”, the “Excess HSA Score” value [3, 19] was 565.8 and the Comments [3, 20] was “Synergistic”. For the same molecule, the “Excess HSA Score” value [3, 20] was −1771.116, the “Excess HSA Score” value [4, 21] was 11.13 and the “Excess HSA Score” value ([4]; combination with AMG-232) was −114.6. The “Excess HSA Score” value ([4]; combination with AZD-5363) was −297.4, the “Excess HSA Score” value [4, 22] was −154.6246 and the “Excess HSA Score” value ([4]; combination with Ivosidenib) was −34.74. The “Excess HSA Score” value ([4]; combination with Lenalidomide) was −84.4505, the “Excess HSA Score” value ([4]; combination with Palbociclib) was −483.7 and the “Excess HSA Score” value ([4]; combination with Prednisolone) was −69.46. For the same molecule, the “Excess HSA Score” value ([4]; combination with SNDX-5613) was −465.3, the “Excess HSA Score” value ([4]; combination with TNO-155) was −575.9 and the “Excess HSA Score” value ([4]; combination with Trametinib) was 213.7. For the same molecule, the “Excess HSA Score” value ([4]; combination with Ulixertinib) was −1042, the “Excess HSA Score” value [4, 23] was −862.5 and the Comments [4, 21] was “Antagonistic”. The Comments ([4]; combination with Ulixertinib) was “Synergistic”, the IC50 [5] was less than 0.0005 µM and the IC50 [6] was 0.062 µM. It also gave an IC50 [7] of 0.001 µM.
In the case of `FC(F)COc1ccn2c(-c3ccnc(N[C@H]4CNCC[C@@H]4F)n3)cnc2c1` [Compound 33, 4-(7-(2,2-difluoroethoxy)imidazo[1,2-a]pyridin-3-yl)-N-((3S,4S)-4-fluoropiperidin-3-yl)pyrimidin-2-amine], the IC50 [1] is reported as 0.007 µM, the IC50 [2] is reported as 0.055 µM and the “Excess HSA Score” value ([3]; THP1 cells, 10 × 10, combination with (+)-BAY-1251152) is reported as −13.85. The “Excess HSA Score” value ([3]; THP1 cells, 10 × 10, combination with AMG-232) was −215.5, the “Excess HSA Score” value ([3]; THP1 cells, 10 × 10, combination with AZD-5363) was −132.5 and the “Excess HSA Score” value ([3]; THP1 cells, 10 × 10, combination with Eprenetapopt/APR-246) was 545.1487. For the same molecule, the “Excess HSA Score” value ([3]; THP1 cells, 10 × 10, combination with Ivosidenib) was −154.2, the “Excess HSA Score” value ([3]; THP1 cells, 10 × 10, combination with Lenalidomide) was 178.6 and the “Excess HSA Score” value ([3]; THP1 cells, 10 × 10, combination with Palbociclib) was −194.6. For the same molecule, the “Excess HSA Score” value ([3]; THP1 cells, 10 × 10, combination with Prednisolone) was 467.2, the “Excess HSA Score” value ([3]; THP1 cells, 10 × 10, combination with SNDX-5613) was 587.7 and the “Excess HSA Score” value ([3]; THP1 cells, 10 × 10, combination with TNO-155) was −195.2. For the same molecule, the “Excess HSA Score” value ([3]; THP1 cells, 10 × 10, combination with Trametinib) was −463.7, the “Excess HSA Score” value ([3]; THP1 cells, 10 × 10, combination with Ulixertinib) was −63.1 and the “Excess HSA Score” value ([3]; THP1 cells, 10 × 10, combination with Venetoclax (ABT-199)) was −1595. For the same molecule, the Comments ([3]; THP1 cells, combination with Lenalidomide) was “Antagonistic”, the Comments ([3]; THP1 cells, combination with Venetoclax (ABT-199)) was “Synergistic” and the “Excess HSA Score” value [4, 21] was 684.1. For the same molecule, the “Excess HSA Score” value ([4]; combination with AMG-232) was −604.4, the “Excess HSA Score” value ([4]; combination with AZD-5363) was 320.5 and the “Excess HSA Score” value [4, 22] was −279.9. The “Excess HSA Score” value ([4]; combination with Ivosidenib) was −12.14, the “Excess HSA Score” value ([4]; combination with Lenalidomide) was −11.33 and the “Excess HSA Score” value ([4]; combination with Palbociclib) was 347. For the same molecule, the “Excess HSA Score” value ([4]; combination with Prednisolone) was −659.1, the “Excess HSA Score” value ([4]; combination with SNDX-5613) was 95.25 and the “Excess HSA Score” value ([4]; combination with TNO-155) was 177.1. The “Excess HSA Score” value ([4]; combination with Trametinib) was −226.8, the “Excess HSA Score” value ([4]; combination with Ulixertinib) was −441.5 and the “Excess HSA Score” value [4, 23] was −315.6. For the same molecule, the Comments ([4]; combination with Prednisolone) was “Synergistic”, the Comments ([4]; combination with SNDX-5613) was “Antagonistic” and the IC50 [5] was less than 0.0005 µM. The IC50 [6] was 0.03 µM and the IC50 [7] was 0.002 µM.
Work on `O=C1CCCN1c1cn2c(-c3ccnc(N[C@H]4CNC[C@@H]4F)n3)cnc2cn1` [Compound 46, 1-(3-(2-(((3S,4S)-4-fluoropyrrolidin-3-yl)amino)pyrimidin-4-yl)imidazo[1,2-a]pyrazin-6-yl)pyrrolidin-2-one] yielded an IC50 [1] of 0.077 µM, an IC50 [2] of 1.37 µM and an IC50 [5] of less than 0.0005 µM. The IC50 [6] was 0.064 µM and the IC50 [7] was 0.012 µM.
In the case of `O=C1CCCN1c1cn2c(-c3ccnc(N[C@@H]4CCCNC4)n3)cnc2cn1` [Compound 47, (R)-1-(3-(2-(piperidin-3-ylamino)pyrimidin-4-yl)imidazo[1,2-a]pyrazin-6-yl)pyrrolidin-2-one], the IC50 [1] is reported as 0.039 µM, the IC50 [2] is reported as 0.344 µM and the IC50 [5] is reported as less than 0.0005 µM. For the same molecule, the IC50 [6] was 0.068 µM and the IC50 [7] was 0.012 µM.
`O=C1CCCN1c1cn2c(-c3ccnc(N[C@H]4CNCC[C@@H]4F)n3)cnc2cn1` [Compound 48, 1-(3-(2-(((3S,4S)-4-fluoropiperidin-3-yl)amino)pyrimidin-4-yl)imidazo[1,2-a]pyrazin-6-yl)pyrrolidin-2-one] gave an IC50 [1] of 0.043 µM, an IC50 [2] of 0.273 µM and an IC50 [5] of less than 0.0005 µM. It also gave an IC50 [6] of 0.097 µM and an IC50 [7] of 0.018 µM.
`CC(C)Oc1ccn2c(-c3nccc(N[C@H]4CNC[C@@H]4F)n3)cnc2c1` [Compound 52, N-((3S,4S)-4-fluoropyrrolidin-3-yl)-2-(7-isopropoxyimidazo[1,2-a]pyridin-3-yl)pyrimidin-4-amine] was tested, and the IC50 [1] was 0.473 µM, the IC50 [2] was 7.5 µM and the IC50 [5] was 0.005 µM. It also gave an IC50 [6] of 0.961 µM and an IC50 [7] of 0.042 µM.
`CC(C)Oc1ccn2c(-c3nccc(N[C@@H]4CCCNC4)n3)cnc2c1` [Compound 53, (R)-2-(7-isopropoxyimidazo[1,2-a]pyridin-3-yl)-N-(piperidin-3-yl)pyrimidin-4-amine] gave an IC50 [1] of 0.205 µM, an IC50 [2] of 2.17 µM and an IC50 [5] of 0.002 µM. It also gave an IC50 [6] of 1.94 µM and an IC50 [7] of 0.06 µM.
